Assay: HPLC radiometabolite analysis of arterial plasma after [^18F]DPA-714 injection
Format: in vivo
Settings: rat arterial plasma, mean ± SD

% [^18F]DPA-714 (parent) in plasma (P.I. time 12 (min), N=7): 68 ± 7.4%
% [^18F]DPA-714 (parent) in plasma (P.I. time 30 (min), N=7): 44 ± 8.9%
% [^18F]DPA-714 (parent) in plasma (P.I. time 60 (min), N=7): 27 ± 6.2%
% [^18F]DPA-714 (parent) in plasma (P.I. time 90 (min), N=5): 22 ± 17.8%
SMILES: CCN(CC)C(=O)Cc1c(-c2ccc(OCC[18F])cc2)nn2c(C)cc(C)nc12 [[^18F]DPA-714, N,N-diethyl-2-(2-(4-(2-(^18F)-fluoroethoxy)phenyl)-5,7-dimethylpyrazolo[1,5-a]pyrimidin-3-yl)acetamide]

— PMC3391587 (Journal of Nuclear Medicine, 2012)
